Here are results for one compound from ChEMBL document CHEMBL1142950, “Zooxanthellamide D, a polyhydroxy polyene amide from a marine dinoflagellate, and chemotaxonomic perspective of the Symbiodinium polyols” (J Nat Prod, 2007).

The subject of one assay is Phytophthora capsici. Description: Antifungal activity against Phytophthora capsici by paper disk assay. Format: functional, organism-based.
The test system of another assay is A-431. Description: Cytotoxicity against human A431 cells. Format: cell-based.
Assay [1] is described as follows: Cytotoxicity against human Nakata cells. In kind it is cell-based.

Structures are written as SMILES. The source made the active and inactive calls. No cut-off for these calls is given here.

In the case of `C=CC(=C)CC(=C)/C(C)=C/CC/C=C/C=C(\C)C[C@@H]1O[C@@H](C(O)C(O)C(O)/C(C)=C/C=C/CNC(=O)/C=C/C=C/C(O)CC(O)C(O)C[C@H]2O[C@@H]([C@H]3C[C@H](O)[C@H](O)[C@@](C)(CO)O3)[C@H](O)C(O)[C@@H]2O)[C@@H](O)[C@H](O)[C@H]1O` (stereo partly drawn) [ZOOXANTHELLAMIDE D], the result in the assay with Phytophthora capsici was inactive. For the same compound, the IC50 with A-431 was 4.5 µM; in assay [1], 6.6 µM.

Usually IC50 stands for the midpoint of a concentration-inhibition curve.
